# ChEMBL document CHEMBL3885861, “Open TG-GATES”
# Species: Rattus norvegicus
# Test: Open TG-GATES - Regimen: Single
# Format: toxicity, organism-based, Sprague-Dawley
# Set-up: regimen Single, gender Male, age 6 weeks
# Details: in vivo, po, 300 mg/kg, route gavage, dose level High; for APTT / Bas / Eos / Fbg / Hb / Ht / Lym / MCHC / MCV / Mono / Neu / PT / Plat / RBC / Ret / WBC: tissue Blood; for KIDNEY_L / KIDNEY_R / KIDNEY_TOTAL: tissue Kidney; for LIVER: tissue Liver; for ALP / ALT / AST / BUN / CRE / Ca / Cl / DBIL / GLC / IP / K / LDH / Na / PL / RALB / TBIL / TC / TG / TP / gamma-GTP: tissue Plasma
structure (smiles),measurement,setting,value
CS(=O)(=O)Nc1ccc([N+](=O)[O-])cc1Oc1ccccc1 [NIMESULIDE],TERMINAL_BW,3 h,200.7 g
same,APTT,3 h,21.2 s
same,Bas,3 h,0%
same,Eos,3 h,1.4%
same,Fbg,3 h,206.8 mg/dL
same,Hb,3 h,13 g/dL
same,Ht,3 h,38.1%
same,Lym,3 h,69.4%
same,MCHC,3 h,34.1%
same,MCV,3 h,65.4 fL
same,Mono,3 h,6%
same,Neu,3 h,23.6%
same,PT,3 h,12.4 s
same,Plat,3 h,109.9 x10_4/uL
same,RBC,3 h,582.6 x10_4/ul
same,Ret,3 h,11.4%
same,WBC,3 h,70.5 x10_2/uL
same,KIDNEY_L,3 h,0.9 g
same,KIDNEY_R,3 h,0.9 g
same,KIDNEY_TOTAL,3 h,1.8 g
same,LIVER,3 h,8.9 g
same,ALP,3 h,841.8 IU/L
same,ALT,3 h,35.8 IU/L
same,AST,3 h,62.8 IU/L
same,BUN,3 h,21.4 mg/dL
same,CRE,3 h,0.6 mg/dL
same,Ca,3 h,10.7 mg/dL
same,Cl,3 h,102.8 meq/L
same,DBIL,3 h,0.046 mg/dL
same,GLC,3 h,313.4 mg/dL
same,IP,3 h,9.9 mg/dL
same,K,3 h,4.9 meq/L
same,LDH,3 h,88.4 IU/L
same,Na,3 h,138 meq/L
same,PL,3 h,137.4 mg/dL
same,RALB,3 h,3.8 g/dL
same,TBIL,3 h,0.4 mg/dL
same,TC,3 h,81.2 mg/dL
same,TG,3 h,49.6 mg/dL
same,TP,3 h,5.1 g/dL
same,gamma-GTP,3 h,1 IU/L
same,TERMINAL_BW,6 h,196.2 g
same,APTT,6 h,19.9 s
same,Bas,6 h,0%
same,Eos,6 h,0.8%
same,Fbg,6 h,207.8 mg/dL
same,Hb,6 h,13 g/dL
same,Ht,6 h,39%
same,Lym,6 h,68.4%
same,MCHC,6 h,33.2%
same,MCV,6 h,64.4 fL
same,Mono,6 h,2.6%
same,Neu,6 h,28.6%
same,PT,6 h,12.5 s
same,Plat,6 h,110.2 x10_4/uL
same,RBC,6 h,605.8 x10_4/ul
same,Ret,6 h,9.2%
same,WBC,6 h,44 x10_2/uL
same,KIDNEY_L,6 h,0.8 g
same,KIDNEY_R,6 h,0.9 g
same,KIDNEY_TOTAL,6 h,1.7 g
same,LIVER,6 h,8.1 g
same,ALP,6 h,978 IU/L
same,ALT,6 h,30.6 IU/L
same,AST,6 h,61.6 IU/L
same,BUN,6 h,19.4 mg/dL
same,CRE,6 h,0.7 mg/dL
same,Ca,6 h,10.4 mg/dL
same,Cl,6 h,101.6 meq/L
same,DBIL,6 h,0.028 mg/dL
same,GLC,6 h,360 mg/dL
same,IP,6 h,10.7 mg/dL
same,K,6 h,4.5 meq/L
same,LDH,6 h,83.4 IU/L
same,Na,6 h,135.4 meq/L
same,PL,6 h,135 mg/dL
same,RALB,6 h,3.8 g/dL
same,TBIL,6 h,0.4 mg/dL
same,TC,6 h,80.4 mg/dL
same,TG,6 h,27 mg/dL
same,TP,6 h,5.3 g/dL
same,gamma-GTP,6 h,1 IU/L
same,TERMINAL_BW,9 h,192.8 g
same,APTT,9 h,19 s
same,Bas,9 h,0%
same,Eos,9 h,0%
same,Fbg,9 h,208.8 mg/dL
same,Hb,9 h,13.2 g/dL
same,Ht,9 h,39.2%
same,Lym,9 h,74.5%
same,MCHC,9 h,33.8%
same,MCV,9 h,65 fL
same,Mono,9 h,4.5%
same,Neu,9 h,20.8%
same,PT,9 h,12.8 s
same,Plat,9 h,108.6 x10_4/uL
same,RBC,9 h,603.2 x10_4/ul
same,Ret,9 h,10.1%
same,WBC,9 h,54.5 x10_2/uL
same,KIDNEY_L,9 h,0.8 g
same,KIDNEY_R,9 h,0.9 g
same,KIDNEY_TOTAL,9 h,1.7 g
same,LIVER,9 h,7.3 g
same,ALP,9 h,850.5 IU/L
same,ALT,9 h,26.8 IU/L
same,AST,9 h,59.8 IU/L
same,BUN,9 h,17.8 mg/dL
same,CRE,9 h,0.7 mg/dL
same,Ca,9 h,10.4 mg/dL
same,Cl,9 h,102.2 meq/L
same,DBIL,9 h,0.0125 mg/dL
same,GLC,9 h,323.5 mg/dL
same,IP,9 h,9.2 mg/dL
same,K,9 h,4.8 meq/L
same,LDH,9 h,121.2 IU/L
same,Na,9 h,133.5 meq/L
same,PL,9 h,128.2 mg/dL
same,RALB,9 h,4 g/dL
same,TBIL,9 h,0.4 mg/dL
same,TC,9 h,76.5 mg/dL
same,TG,9 h,14.2 mg/dL
same,TP,9 h,5.3 g/dL
same,gamma-GTP,9 h,1.8 IU/L
same,TERMINAL_BW,24 h,182.2 g
same,APTT,24 h,18.9 s
same,Bas,24 h,0%
same,Eos,24 h,1%
same,Fbg,24 h,187 mg/dL
same,Hb,24 h,13.7 g/dL
same,Ht,24 h,40.7%
same,Lym,24 h,61.2%
same,MCHC,24 h,33.7%
same,MCV,24 h,63.7 fL
same,Mono,24 h,9.8%
same,Neu,24 h,28.2%
same,PT,24 h,12.7 s
same,Plat,24 h,126.6 x10_4/uL
same,RBC,24 h,639.4 x10_4/ul
same,Ret,24 h,9.5%
same,WBC,24 h,117.8 x10_2/uL
same,KIDNEY_L,24 h,0.9 g
same,KIDNEY_R,24 h,0.9 g
same,KIDNEY_TOTAL,24 h,1.9 g
same,LIVER,24 h,8.1 g
same,ALP,24 h,783.2 IU/L
same,ALT,24 h,27.2 IU/L
same,AST,24 h,64.8 IU/L
same,BUN,24 h,22.8 mg/dL
same,CRE,24 h,0.8 mg/dL
same,Ca,24 h,9.9 mg/dL
same,Cl,24 h,108 meq/L
same,DBIL,24 h,0.032 mg/dL
same,GLC,24 h,209 mg/dL
same,IP,24 h,7.3 mg/dL
same,K,24 h,4.6 meq/L
same,LDH,24 h,99.6 IU/L
same,Na,24 h,139.6 meq/L
same,PL,24 h,110.4 mg/dL
same,RALB,24 h,3.9 g/dL
same,TBIL,24 h,0.4 mg/dL
same,TC,24 h,55.4 mg/dL
same,TG,24 h,41.2 mg/dL
same,TP,24 h,5.2 g/dL
same,gamma-GTP,24 h,1.8 IU/L
